Reference: US8178658B2 (Dow AgroSciences, LLC, priority 2008, dated 2012)
Like-named read-outs stand apart in the source and are kept apart here.

What was measured:
[1] = test system: beet armyworm (BAW; Spodoptera exigua: Lepidoptera); experiment: 96-well microtiter plate-based high throughput (HTS) diet bioassay on beet armyworm (BAW HTS); format: in vivo; conditions: for pest or weed control at 12 µg/well, 12 µg/well: Spodoptera exigua, 144 h, read-out: BAW HTS
Procedure, shortened: (§1)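 Compound was layered onto artificial diet and dried, then infested: eggs for the 96-well test (12 μg per well, 29° C, dark) and 3–5 second instars for the 128-well tray (50 μg/cm^2, 25° C, 14:10 light-dark). Both ran six days before percent mortality was recorded and averaged across replicates or wells.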

[2] = test system: beet armyworm (BAW; Spodoptera exigua: Lepidoptera); experiment: 128-well diet tray assay on beet armyworm (BAW 50); format: in vivo; conditions: for pest or weed control at 50 µg/cm2, 50 µg/cm2: Spodoptera exigua, 144 h, read-out: BAW 50 ug/cm2
Procedure, shortened: as §1

[3] = 96-well microtiter plate HTS diet assay, 12 μg test compound per well, BAW eggs, mortality at 6 d post-treatment, mortality class
[4] = 128-well diet tray assay, 50 μg/cm^2 of test compound on diet, second instar BAW larvae, mortality class
[5] = 96-well HTS diet assay, BAW eggs, 12 μg test compound per well, mortality at 6 d post-treatment, mortality class
[6] = 96-well HTS diet bioassay, BAW eggs, 12 μg test compound per well, mortality at 6 d post-treatment, mortality class
[7] = 128-well diet tray assay, second instar BAW larvae, 50 μg/cm^2 of test compound on diet, mortality class

| Structure (SMILES) | BAW HTS [1, 3] | pest or weed control at 12 µg/well, 12 µg/well [1] [%] | BAW 50 ug/cm2 [2, 4] | pest or weed control at 50 µg/cm2, 50 µg/cm2 [2] [%] | BAW HTS [1, 5] | BAW HTS [1, 6] | BAW 50 ug/cm2 [2, 7] | pest or weed control at 12 µg/well, 12 µg/well [1, 5] [%] | pest or weed control at 50 µg/cm2, 50 µg/cm2 [2, 7] [%] |
| --- | --- | --- | --- | --- | --- | --- | --- | --- | --- |
| CO[C@@H]1[C@@H](OC)[C@H](C)O[C@@H](OC(=O)Nc2ccc(-n3cnc(-c4ccc(C(F)(F)F)cc4)n3)cc2Cl)[C@@H]1OC [Compound 189, {2-chloro-4-[3-(4-trifluoromethylphenyl)-[1,2,4]triazol-1-yl]-phenyl}-carbamic acid (2S,3R,4R,5S,6S)-3,4,5-trimethoxy-6-methyl-tetrahydropyran-2-yl ester] | A (the compound was tested and at least 50 percent mortality was observed) | > 50 | A (the compound was tested and at least 50 percent mortality was observed) | > 50 |  |  |  |  |  |
| CCCCO[C@@H]1[C@@H](OC)[C@H](C)O[C@@H](OC(=O)Nc2ccc(-c3cn(-c4ccc(OC(F)(F)F)cc4)cn3)cc2)[C@@H]1OC [Compound 175] | A (the compound was tested and at least 50 percent mortality was observed) |  | A (the compound was tested and at least 50 percent mortality was observed) |  | A (the compound was tested and at least 50 percent mortality was observed) |  |  |  |  |
| COC1C(C)OC(ON=Cc2ccc(-c3cn(-c4ccc(OC(F)(F)F)cc4)cn3)c(F)c2F)C(OC)C1OC (stereo not shown) [Compound 49] | B (either (1) the compound was tested and less than 50 percent mortality was observed or (2) the compound was not tested) |  | A (the compound was tested and at least 50 percent mortality was observed) |  |  | B (either (1) the compound was tested and less than 50 percent mortality was observed or (2) the compound was not tested) |  |  |  |
| CO[C@@H]1[C@@H](OC)[C@H](C)O[C@@H](OC(=S)Nc2ccc(-c3cn(-c4ccc(OC(F)(F)F)cc4)cn3)cc2)[C@@H]1OC [Compound 176] | B (either (1) the compound was tested and less than 50 percent mortality was observed or (2) the compound was not tested) | < 50 | A (the compound was tested and at least 50 percent mortality was observed) | > 50 |  |  |  |  |  |
| CCO[C@@H]1[C@@H](OC)[C@H](C)O[C@H](OC(=O)Nc2ccc(-c3ncn(-c4ccc(OC(F)(F)F)cc4)n3)cc2)[C@@H]1OC [Compound 210] | A (the compound was tested and at least 50 percent mortality was observed) |  | A (the compound was tested and at least 50 percent mortality was observed) |  | A (the compound was tested and at least 50 percent mortality was observed) |  |  |  |  |
| CCO[C@@H]1[C@@H](OC)[C@H](C)O[C@H](OC(=O)Nc2ccc(C3=NOC(c4ccc(C(F)(F)F)cc4)C3)cc2)[C@@H]1OC (stereo partly shown) [Compound 182] | B (either (1) the compound was tested and less than 50 percent mortality was observed or (2) the compound was not tested) |  | B (either (1) the compound was tested and less than 50 percent mortality was observed or (2) the compound was not tested) |  | B (either (1) the compound was tested and less than 50 percent mortality was observed or (2) the compound was not tested) |  |  |  |  |
| COC1C(C)OC(ON=Cc2ccc(-c3cn(-c4ccc(I)cc4)cn3)cc2)C(OC)C1OC (stereo not shown) [Compound 47] | B (either (1) the compound was tested and less than 50 percent mortality was observed or (2) the compound was not tested) |  | A (the compound was tested and at least 50 percent mortality was observed) |  |  | B (either (1) the compound was tested and less than 50 percent mortality was observed or (2) the compound was not tested) |  |  |  |
| CCO[C@@H]1[C@@H](OC)[C@H](C)O[C@@H](OC(=O)Nc2ccc(-c3nc(CC(C)C)n(-c4ccc(OC(F)(F)F)cc4)n3)cc2)[C@@H]1OC [Compound 219] | B (either (1) the compound was tested and less than 50 percent mortality was observed or (2) the compound was not tested) |  | A (the compound was tested and at least 50 percent mortality was observed) |  | B (either (1) the compound was tested and less than 50 percent mortality was observed or (2) the compound was not tested) |  |  |  |  |
| CO[C@@H]1[C@@H](OC)[C@H](C)O[C@@H](O/N=C/c2ccc(-n3cnc(-c4ccccc4F)n3)cc2)[C@@H]1OC [Compound 70] | A (the compound was tested and at least 50 percent mortality was observed) |  | B (either (1) the compound was tested and less than 50 percent mortality was observed or (2) the compound was not tested) |  |  | A (the compound was tested and at least 50 percent mortality was observed) |  |  |  |
| COc1cccc(-c2cnn(-c3ccc(C=NOC4OC(C)C(OC)C(OC)C4OC)cc3)c2)c1 (stereo not shown) [Compound 1] |  |  |  |  | A (the compound was tested and at least 50 percent mortality was observed) | A (the compound was tested and at least 50 percent mortality was observed) | B (either (1) the compound was tested and less than 50 percent mortality was observed or (2) the compound was not tested) |  |  |
| COC1C(C)OC(ON=Cc2ccccc2-c2cn(-c3ccc(OC(F)(F)F)cc3)cn2)C(OC)C1OC (stereo not shown) [Compound 19] | B (either (1) the compound was tested and less than 50 percent mortality was observed or (2) the compound was not tested) |  | B (either (1) the compound was tested and less than 50 percent mortality was observed or (2) the compound was not tested) |  |  | B (either (1) the compound was tested and less than 50 percent mortality was observed or (2) the compound was not tested) |  |  |  |
| COC1C(C)OC(ON=Cc2ccc(-c3ncn(-c4ccc(C(C)C)cc4)n3)cc2)C(OC)C1OC (stereo not shown) [Compound 83] | B (either (1) the compound was tested and less than 50 percent mortality was observed or (2) the compound was not tested) |  | A (the compound was tested and at least 50 percent mortality was observed) |  |  | B (either (1) the compound was tested and less than 50 percent mortality was observed or (2) the compound was not tested) |  |  |  |
| COC1C(C)OC(ON=Cc2ccc(-n3cnc(-c4ccc(C(F)(F)F)cc4)c3)cc2)C(OC)C1OC (stereo not shown) [Compound 57] | A (the compound was tested and at least 50 percent mortality was observed) |  | A (the compound was tested and at least 50 percent mortality was observed) |  |  | A (the compound was tested and at least 50 percent mortality was observed) |  |  |  |
| CCCO[C@@H]1[C@@H](OC)[C@H](C)O[C@@H](OC(=O)N(CC)c2ccc(-c3ncn(-c4ccc(OC(F)(F)C(F)(F)F)cc4)n3)cc2)[C@@H]1OC [Compound 253, ethyl {4-[1-(4-pentafluoroethoxy-phenyl)-1H-[1,2,4]triazol-3-yl]-phenyl}-carbamic acid (2S,3R,4R,5S,6S)-4-propoxy-3,5-dimethoxy-6-methyl-tetrahydropyran-2-yl ester] | A (the compound was tested and at least 50 percent mortality was observed) | > 50 | A (the compound was tested and at least 50 percent mortality was observed) | > 50 |  |  |  |  |  |
| COC1C(C)OC(ON=Cc2ccc(-c3ncn(-c4ccc(SC(F)(F)F)cc4)n3)cc2)C(OC)C1OC (stereo not shown) [Compound 87] | B (either (1) the compound was tested and less than 50 percent mortality was observed or (2) the compound was not tested) |  | A (the compound was tested and at least 50 percent mortality was observed) |  |  | B (either (1) the compound was tested and less than 50 percent mortality was observed or (2) the compound was not tested) |  |  |  |
| CCCO[C@@H]1[C@@H](OC)[C@H](C)O[C@@H](OC(=O)Nc2ccc(-c3ncn(-c4ccc(OC(F)(F)C(F)(F)C(F)(F)F)cc4)n3)cc2)[C@@H]1OC [Compound 216] | A (the compound was tested and at least 50 percent mortality was observed) |  | A (the compound was tested and at least 50 percent mortality was observed) |  | A (the compound was tested and at least 50 percent mortality was observed) |  |  |  |  |
| CO[C@@H]1[C@@H](OC)[C@H](C)O[C@@H](O/N=C/c2ccc(-c3ncc(-c4ccc(OC(F)(F)C(F)(F)F)cc4)cn3)cc2)[C@@H]1OC [Compound 141] | A (the compound was tested and at least 50 percent mortality was observed) |  | A (the compound was tested and at least 50 percent mortality was observed) |  | A (the compound was tested and at least 50 percent mortality was observed) |  |  |  |  |
| COC1C(C)OC(ON=Cc2ccc(-c3cn(-c4ccc(OC(F)(F)F)cc4)cn3)cc2F)C(OC)C1OC (stereo not shown) [Compound 36] | B (either (1) the compound was tested and less than 50 percent mortality was observed or (2) the compound was not tested) |  | A (the compound was tested and at least 50 percent mortality was observed) |  |  | B (either (1) the compound was tested and less than 50 percent mortality was observed or (2) the compound was not tested) |  |  |  |
| CCO[C@@H]1[C@@H](OC)[C@H](C)O[C@@H](O/N=C2\CCc3cc(-c4ncn(-c5ccc(OC(F)(F)F)cc5)n4)ccc32)[C@@H]1OC [Compound 170, 5-[1-(4-trifluoromethoxyphenyl)-1H-[1,2,4]triazol-3-yl]-indan-1-one O-((2S,3R,4R,5S,6S)-4-ethoxy-3,5-dimethoxy-6-methyl-tetrahydropyran-2-yl)-oxime] | B (either (1) the compound was tested and less than 50 percent mortality was observed or (2) the compound was not tested) |  | A (the compound was tested and at least 50 percent mortality was observed) |  |  |  |  | < 50 | > 50 |
